How the values were obtained:
SW480 cells [1] = assay: Soft agar colony growth assay, SW480; assay type: cell-based, human; details: SW480, 10 days; AZD1480 1 μM, S3I-201 50 μM, IL11 10 ng/ml
Description: (§1) e Photograph of SW480 and SW480^APC CRC cells grown for 10 days under colony forming conditions in soft agar in the presence of vehicle or 1 μM of Jak2 inhibitor AZD1480 (Jak2i) (Scale bar=200 μm)
(§2) f Colony forming capacity of an isogenic pair of SW480 cells scored 10 days after the indicated treatment. (*p≦0.04; triplicate cultures and repeated).
(§3) SW480 and SW480^APC cells (Faux et al., 2004) were seeded in 2 ml of RPMI media supplemented with 10% FBS and 1% penicillin/streptomycin in 35 mm culture dishes at a density of 2×10^5 cells per dish. Three days later cultures were exposed to AZD1480 (1 μM) for 15 min. Co-immunofluorescence was then performed with antibodies to rabbit phospho-Stat3 (Tyr705, Santa Cruz #9134s, 1:200 dilution) and mouse β-catenin (Transduction Laboratories, 1:400). Colony formation assays of SW480 cells in soft agar were performed as described (Faux et al., 2004) in the presence of either AZD1480, (1 μM), the Stat3 inhibitor S3I-201 (Biovision, 50 μM) or recombinant human IL11 (Genetics Institute, 10 ng/ml). All experiments were performed in triplicates and repeated at least once. Vehicle was methylcellulose.

SW480^APC cells [2] = assay: Soft agar colony growth assay, SW480APC; assay type: cell-based, human; details: 10 days, AZD1480 1 μM, S3I-201 50 μM, IL11 10 ng/ml
Description: as §1, §2, §3

SW480^APC cells [3] = assay: p-STAT3 immunofluorescence and SOCS3 RT-qPCR in SW480APC cells; assay type: cell-based, human
Description: (§4) d Immunofluorescence staining for β-CATENIN or tyrosine-705 phosphorylated STAT3 in an isogenic pair of SW480 cells grown in the presence of 1 μM AZD1480 (Jak2i) or vehicle. SW480 cells are APC mutant and lack expression of functional APC protein, while SW480^APC cells have been reconstituted to express wild-type APC. Scale bar=20 μm.
(§5) g RT-qPCR expression analysis for the STAT3 target gene SOCS3 in SW480 and SW480^APC CRC cells grown for 10 days under colony forming conditions in soft agar in the presence of the indicated treatment. Expression in the vehicle-treated cultures was arbitrarily set as 1. (*p≦0.04; triplicate cultures in each of two repeats).
as §3
(§6) Gene expression analysis by RT-qPCR was performed using the SybrGreen method (ABI) as described previously (Phesse et al., 2008). Fold change was calculated using the 2^−ΔΔCT method (Livak et al., 2001). Protein expression was analysed by Western blot by transferring SDS-PAGE separated protein lysates to nitrocellulose membrane and blocked either in 5% non-fat milk powder and probed with antibodies detecting p16 (Santa Cruz; #sc-467), Bmi1 (Millipore #[…]), Actin (Sigma; #A2066) or Gapdh (Santa Cruz; #sc-69778). All antibodies were diluted 1:1000 in BSA or non-fat milk powder and incubations were performed overnight.

RKO cells = assay: RKO tumor xenografts; assay type: in vivo; details: RKO (low Wnt signaling), BALB/c nude mice, daily gavage 30 mg/kg from day 7
Description: c, d Tumour xenograft burden in BALB/c nude mice injected s.c. with DLD1 cells or RKO cells in PBS and receiving daily gavage with AZD1480 (30 mg/kg) or vehicle starting on the 7th day after cell inoculation. (*p≦0.0004; two sided t-test; n=8).

small intestine = assay: Irradiation induced intestinal regeneration; assay type: in vivo; details: gp130^F/F mice, AZD1480 30 mg/kg, 72 h after γ-irradiation (14 Gy)
Description: a Immunohistochemical analysis for the proliferation marker PCNA on sections of small intestines of wild-type (Wt), gp130^F/F (F/F), Stat3^+/−, gp130^F/F;Stat3^+/− (F/F Stat3^+/−), gp130^ΔStat/ΔStat (Δ/Δ) and gp130^ΔStat/+ (Δ/+) as well as of Wt and F/F mice treated with Jak2 kinase inhibitor AZD1480 (Jak2i; 30 mg/kg) 72 h after exposure to γ-irradiation. Scale bar=100 μm.
b Enumeration of intact crypts in cross sections from the proximal small intestine stained for PCNA obtained 72 h after exposure of mice of the indicated genotype to γ-irradiation. (*p≦0.04; n=3 mice).
Mice were irradiated with a single dose of 14 Gy of γ-irradiation (0.414 Gy/min) to determine regenerative potential of the small intestine as described (Ashton et al., 2010).

SW480 cells [4] = assay: p-STAT3 / β-CATENIN immunofluorescence and SOCS3 RT-qPCR in SW480 cells; assay type: cell-based, human
Description: as §4, §5, §3, §6

intestinal tumours [5] = assay: Treatment of ApcMin mice with established intestinal tumours; assay type: in vivo; details: Apc^Min mice treated daily 30 mg/kg from 6 to 12 weeks of age; increased in vehicle cohort
From the text: (§7) Hematoxilin and Eosin-stained sections were scanned using an Aperio ScanScope XT (Aperio, USA) pathology slide scanner with a 20x PlanApo NA0.6 objective and areas of interest were extracted using Aperio ImageScope software v11.1.2.760. The area of individual tumors was outlined using MetaMorph v7.7.7 and standardized against the entire length of the colon section as described (Barker et al., 2009).

intestinal tumours [6] = assay: Intestinal tumour burden after tamoxifen-induced conditional Apc deletion in Lgr5CreERT2;Apcfl/fl mice; assay type: in vivo; details: tamoxifen-treated Lgr5^CreERT2;Apc^fl/fl mice, prophylactic daily AZD1480 30 mg/kg, 5 weeks
Description: e Quantification of intestinal tumour burden of mice using the Metamorph analysis tool (Barker et al., 2009) after tamoxifen-induced conditional Apc deletion in adult Lgr5^CreERT2;Apc^fl/fl mice that also received daily administration of AZD1480 (30 mg/kg) or vehicle during this time. (*p≦0.04; n=3 mice).
d Intestinal tumour burden 5 weeks after tamoxifen-induced conditional Apc deletion in adult Lgr5^CreERT2;Apc^fl/fl mice that also received daily administration of AZD1480 (Jak2i; 30 mg/kg) or vehicle during this time. Higher magnifications of the boxed areas are provided and arrows point to tubular adenomas whilst arrowheads point to micro-adenomas. Scale bars=1 mm.
10 week old Lgr5CreERT2;Apcfl/fl mice received four i.p injections with tamoxifen (10 mg/ml; 300 ul, 200 ul, 200 ul, 200 ul) over four consecutive days. Three days after the last injection, mice received daily oral gavages with either vehicle (tap water, pH 2.0) or CYT387 (30 mg/kg) for four weeks. Regime was 5 days treatment followed by 2 days off treatment.
as §7

SMILES: Cc1cc(Nc2nc(N[C@@H](C)c3ncc(F)cn3)ncc2Cl)n[nH]1 [AZD1480]
- colony formation in soft agar (SW480 cells [1]): strongly impaired
- colony formation in soft agar (SW480^APC cells [2]): did not affect colony formation
- accumulation of activated (phosphorylated) p-STAT3 (SW480^APC cells [3]; 1 μM AZD1480): reduced accumulation
- SOCS3 expression (SW480^APC cells [3]; RT-qPCR, AZD1480 1 μM, IL11 10 ng/ml): reduced SOCS3 expression
- xenograft tumor growth (RKO cells): did not result in reduced tumor growth
- intestinal regeneration (small intestine): impaired
- accumulation of nuclear β-CATENIN (SW480 cells [4]; APC-deficient SW480, 1 μM AZD1480): did not diminish
- accumulation of activated (phosphorylated) p-STAT3 (SW480 cells [4]; SW480, 1 μM AZD1480): reduced accumulation
- SOCS3 expression (SW480 cells [4]; SW480, RT-qPCR, AZD1480 1 μM, IL11 10 ng/ml): reduced SOCS3 expression
- total tumour area (intestinal tumours [5]): remained remarkably constant
- tumour number (intestinal tumours [5]): remained remarkably constant
- growth and de novo tumour formation (intestinal tumours [6]): profoundly reduced

— patent publication US20160045498A1, “METHODS OF TREATING DISEASES CHARACTERIZED BY EXCESSIVE WNT SIGNALLING” (THE WALTER AND ELIZA HALL INSTITUTE OF MEDICAL RESEARCH, priority 2013, published 2016)
